From US6395281B1, “Cosmetic skin conditioning compositions containing red yeast rice extract” (Unilever Home & Personal Care USA, a division of Conopco, …, priority 1999, dated 2002)

Legend:
[1] = tested on: Neonatal human dermal fibroblasts; assay: Procollagen I production by fibroblasts (dot blot); assay type: cell-based; settings: 50 μg; for Procollagen 1 production: densitometer reading
Procedure: This example measured production of procollagen I by fibroblasts in response to treatment with various test compounds.
Methodology for determination of (Pro) Collagen-I protein expression using Dot Blot technique:
Neonatal human dermal fibroblasts (passage 4 to 8) were purchased from Clonetics Corp. San Diego, Calif. All materials for cell culture were purchased from Life technologies, New York and used in passages 5-10. Cells were seeded at a density of approximately 7,500/well in the inner 48 wells of a 96-well plate in DMEM (Dulbecco's Modified Eagle's Medium), high glucose supplemented with 2 mM L-glutamine, 10% fetal bovine serum, and antibiotic and. antimycotic solutions. Cells were grown to confluence and washed with serum free, phenol red free DMEM and cells dosed with 200 μl actives in media. Each dosing was replicated in a total of six to twelve wells. After 24 hours, the test compound solution or the control solution was removed and cells re-dosed with 100 μl actives in media. After 24 hours incubation, remove media and store at 4° C. with protease inhibitor (Aprotinin 1:200) until further use. The test compound solution was then diluted in 1X Tris buffered saline (pH=8) buffer (approximately 20 μl media in 200 μl buffer).
PVDF membrane soaked in methanol and 2 filter papers in 1X TBS (pH=8). Bio-Rad dot blot apparatus was set up with filter paper on bottom, membrane on top, tighten, added 100 μl TBS per well. Vacuum dry. Vortex or mix, then load 100 μl diluted sample per well; let it sit for 15 minutes and then vacuum dry. Remove membrane from the apparatus, cut off excess, and notch bottom right comer for orientation. Place membrane in blocking buffer (5% milk powder in 1X TBS-Tween) for 1 hour at room temperature with shaking. […] Remove membrane, do a 10 minute wash three to five times in TBS/0.1% Tween. Incubate for 1 hour at RT or O/N at 4° C. in 5 ml 1:1000 anti-rat conjugated alkaline phosphatase (AP) secondary antibody in 1-% milk in TBS-T in a sealed bag with shaking. Wash membrane for 15 minutes five to eight times with TBS-T, and final rinse with 1X PBS. The membrane was developed using Chemiluminiscent substrate (Boehringer Mannheim, Ind.) and results were analysed using a laser densitometer (Bio-Rad instrument). Fold increase was calculated as a ratio of densitometer reading for cells treated with a test compound over control.

ZR75 cells = assay: Assay for estrogen like activity: [methyl-3H] thymidine incorporation in ZR75 cells; assay type: cell-based, human; settings: 0.27 × 10^−6% (10 nM)
Description: The ZR75 cell line is a ductal breast carcinoma cell line, originally isolated from malignant mammary epithelium of a person (10). The chromosome number is triploid and the trypsin-Giemsa banding patterns indicate a unique karyotype distinct from HeLa cells. While containing receptors for estrogen, insulin, progesterone and other hormones, ZR75 cells only respond through an increase in proliferation to estrogen and insulin. The cell line contains high affinity estrogen-specific receptors. Therefore, this cell line is used for testing estrogen-like activity.
The cells are split 1:2 once every week and seeded in 24 well plates at one hundred thousand cells per milliliter per well for the assay.
After growing for twenty-four hours, the media was removed, the cells were washed with PBS and one ml of RPMI 1640 without serum was readded. Different dilutions of the red yeast rice extract were then dosed directly into each well. After another twenty-four hours, one microCurie of [methyl-3H] thymidine was added to the media in each well. The media was removed after twenty-four hours to begin the thymidine uptake assay. […] The samples were transferred to scintillation vials and after adding five milliliters of counting fluid (scintiverse), the vials were counted for five minutes each on a setting for tritium. […] Data was calculated as % of control to normalize for experiment-to-experiment variation.

human sebocytes = assay: Sebum secretion by sebocytes (14C-acetate incorporation); assay type: cell-based; settings: 0.001%
Procedure: This example investigated the effect of red yeast rice on sebum secretion by sebocytes. Secondary cultures of human sebocytes obtained from an adult […] were grown in 48-well tissue culture plates (Costar Corp.; Cambridge, Mass.) until confluent. Sebocyte growth medium consisted of Clonetics Keratinocyte Basal Medium (KBM) supplemented with 14 μg/ml bovine pituitary extract, 0.4 μg/ml hydrocortisone, 5 μg/ml insulin, 10 ng/ml epidermal growth factor, 1.2×10−10 M cholera toxin, 100 units/ml penicillin, and 100 μg/ml streptomycin. All cultures were incubated at 37° C. in the presence of 7.5% CO2. Medium was changed three times per week. On the day of experimentation, the growth medium was removed and the sebocytes washed three times with sterile Dulbecco's Modified Eagle Medium (DMEM; phenol red free). Fresh DMEM was added to each sample (triplicates in Table 4 and duplicated in Table 5) with 5 microliter of test agent solubilized in ethanol. Controls consisted of addition of ethanol alone. Each plate was returned to the incubator for 20 hours followed by the addition of 14C-acetate buffer (5 mM final concentration, 56 mCi/mmol specific activity). […] Radioactive label remaining in the sebocytes was harvested and counted using a Beckman scintillation counter. […]

[2] = tested on: Cellular Retinoic Acid Binding Protein 2 (CRABP-2) in human adult fibroblasts; assay: CRABP-2 production by fibroblasts (Western blot); assay type: cell-based; settings: 10e-6M retinoid alone, 48 hours
Procedure: This example investigated the effect of various tested compounds on CRABP-2 production by fibroblasts.
Human adult fibroblasts obtained from su n-protected inner arm of 25-30 year […] volunteer were used in this. Cells were grown in 1:1 DMEM/Hams F12 media containing 10% FBS, maintained at 37° C. in a 5% CO2 atmosphere under normal atmospheric oxygen tension. Third passage adult fibroblasts were grown in DMEM media with 10% FBS in 12-well plates at a seeding density of 2500 cells/ml/well. The cells at 80% confluence were rinsed in serum free and phenol red free (PRF) DMEM media twice. Pre-treatment with test compound for 4 hours was conducted and then dosed with retinoids and was incubated for 48 hours.
After the incubation, the wells were was ed twice with 1X PBS and the cell monolayer was harvested in 100 μl cell lysis buffer (contains 1X PBS, 1% TritonX, 0.5% sodium deoxycholate, 0.1% SDS containing p tease inhibitor (10 mg/ml PMSF in isopropanol, 10 μl/ml). The suspension was spun at 14000 rpm for 10 minutes, the supernatant collected and an aliquot of this supematant was used for protein quantification. Protein concentration was determined using Pierce protein kit. The remainder of 100 μl supernatant (cell lysate) was denatured in a mixture of 40 μl sample buffer (NOVEX) and 0.5% Beta mercaptoethanol (IBME) and by boiling the sample for 5 minutes. Equal amount of protein was then loaded onto 16% Tris-glycine gels for protein analysis by SDS page and Western Immuno-blotting for CRABP-2 protein expression.
The gels were run and transferred to nitrocellulose blots and Western Blotting was carried out using monoclonal antibodies to CRABP-2 according to standard procedures. The CRABP-2 protein band was visualized in the Western Blots using the chemiluminescence system obtained from Santa Cruz Biotechnology (SantaCruz, Calif.). The bands in the film were quantitated by densitometric scanning, the-data from triplicate samples were calculated as % of control and expressed in the following tables as % increase over control (with control as 100%) +/−SD of triplicates.

SMILES | Procollagen 1 production % of Control [1] | Procollagen 1 production [1] | CRABP-2 % of Control [2] | CRABP-2 OD +/− SD [2] | other results
CCCCCCCCCCCCCCCC(=O)OC[C@H](O)[C@H]1OC(=O)C(O)=C1O [Ascorbyl Palmitate, ascorbyl palmitate] | 103 +/− 48% | 0.775 +/− 0.36 |  |  | 
C[C@]12CC[C@@H]3c4ccc(O)cc4CC[C@H]3[C@@H]1CC[C@@H]2O [Estradol, estradiol] |  |  |  |  | cpm +/− SD (thymidine incorporation) (ZR75 cells): 263982 +/− 711 cpm; activity at 0.01 µM (ZR75 cells; Homo sapiens, ZR75, read-out: thymidine incorporation % of control): 224%
O=S1(=O)OC(c2ccc(O)cc2)(c2ccc(O)cc2)c2ccccc21 [Phenol Red] |  |  |  |  | % Reduction (sebum, 14C-acetate label) (human sebocytes; first Table 4 (triplicates)): 83.4%; % Reduction (sebum, 14C-acetate label) (human sebocytes; second table, printed as Table 4 (Table 5, duplicates)): 83.4%
CC1=C(/C=C/C(C)=C/C=C/C(C)=C/CO)C(C)(C)CCC1 [Retinol] |  |  | 153 +/− 5% | 1.91 +/− 0.06 OD | 
CC(=O)OC/C=C(C)/C=C/C=C(C)/C=C/C1=C(C)CCCC1(C)C [Retinyl Acetate] |  |  | 398 +/− 157% | 3.86 +/− 0.28 OD | 
CCCCC/C=C\C/C=C\CCCCCCCC(=O)OC/C=C(C)/C=C/C=C(C)/C=C/C1=C(C)CCCC1(C)C [Retinyl linoleate] |  |  | 156 +/− 13% | 1.96 +/− 0.16 OD | 
CCCCCCCCCCCCCCCC(=O)OC/C=C(C)/C=C/C=C(C)/C=C/C1=C(C)CCCC1(C)C [Retinyl palmitate] |  |  | 178 +/− 33% | 2.00 +/− 0.04 OD | 
O=C1O[C@H]([C@@H](O)CO)C([O-])=C1OP(=O)([O-])[O-].[Na+].[Na+].[Na+] [Sodium ascorbyl phosphate, sodium ascorbyl phosphate] | 116 +/− 27% | 0.871 +/− 0.2 |  |  | 
O=C1O[C@H]([C@@H](O)CO)C(O)=C1O [Vitamin C] | 175 +/− 37% | 1.311 +/− 0.28 |  |  | 
